According to patent publication US11028072B2, “2,4-diamino-6-ethylpyrimidine derivatives with antimalarial activities against Plasmodium falciparum” (National Science and Technology Development Agency, priority 2015, dated 2021):
Where two headings read alike, the source gives them in different places.

Tests used:
[1] = in vitro; details: African green monkey
Text: (§1) In Vitro Antimalarial Activites Against P. falciparum and Cytotoxicity Towards Mammalian Cells (Vero Cells)

[2] = target: T1, Human dihydrofolate reductase (hDHFR) (Homo sapiens, UniProt P00374); test: Inhibition of human dihydrofolate reductase (Ki); format: biochemical; details: human DHFR; hydrochloride salts
T1 sequence (P00374 1-187): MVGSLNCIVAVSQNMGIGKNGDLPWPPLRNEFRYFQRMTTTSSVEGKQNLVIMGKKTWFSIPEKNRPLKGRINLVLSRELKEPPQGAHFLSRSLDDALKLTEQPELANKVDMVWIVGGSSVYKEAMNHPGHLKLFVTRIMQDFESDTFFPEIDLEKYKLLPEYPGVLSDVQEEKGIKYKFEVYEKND

[3] = target: wild type (WT) pfDHFR (Plasmodium falciparum, UniProt P13922, N108S/R59C); test: Inhibition of wild type pfDHFR (Ki); format: biochemical
Chain of wild type (WT) pfDHFR (P13922 whole entry R59C/N108S): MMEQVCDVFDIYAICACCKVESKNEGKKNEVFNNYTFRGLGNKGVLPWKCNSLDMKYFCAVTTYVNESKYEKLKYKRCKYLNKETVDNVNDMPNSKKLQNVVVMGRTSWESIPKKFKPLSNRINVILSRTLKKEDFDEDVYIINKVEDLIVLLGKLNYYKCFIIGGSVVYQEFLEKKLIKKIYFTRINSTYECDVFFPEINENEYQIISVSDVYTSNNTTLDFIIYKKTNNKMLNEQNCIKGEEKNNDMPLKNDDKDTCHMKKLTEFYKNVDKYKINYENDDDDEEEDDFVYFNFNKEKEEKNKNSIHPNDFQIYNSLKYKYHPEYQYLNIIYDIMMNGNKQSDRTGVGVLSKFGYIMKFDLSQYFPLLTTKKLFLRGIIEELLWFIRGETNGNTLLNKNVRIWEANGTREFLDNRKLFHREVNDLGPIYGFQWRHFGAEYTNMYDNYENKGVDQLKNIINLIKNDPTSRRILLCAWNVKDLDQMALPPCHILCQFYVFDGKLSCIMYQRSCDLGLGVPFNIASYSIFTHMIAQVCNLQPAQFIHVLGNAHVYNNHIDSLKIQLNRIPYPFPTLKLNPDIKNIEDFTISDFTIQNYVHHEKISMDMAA
Protocol: (§2) The synthesized 2,4-diamino-6-ethylpyrimdine derivatives as the hydrochloride salts were tested for the activities against Plasmodium falciparum (P. falciparum) according to the standard methods. These include the inhibition of dihydrofolate reductase (DHFR) enzymes of P. falciparum including, wild type (WT) and quadruple mutants (N51IC59RS108NI164L) (QM). The inhibition was expressed as inhibition constants (Ki) in nano molar (nM).

[4] = test system: P. falciparum TM4/8.2 (wild type); test: microbe, parasite or virus in culture; format: cell-based, Plasmodium falciparum; details: read-out: IC50 P. falciparum TM4/8.2 (WT)
Text: as §1

[5] = test system: P. falciparum V1/S (N51I + C59R + S108 + I164L); test: microbe, parasite or virus in culture; format: cell-based, Plasmodium falciparum; details: in vitro, quadruple mutant strain V1/S, read-out: IC50 P. falciparum V1/S
Text: as §1

[6] = target: quadruple mutant N51I + C59R + S108N + I164L (QM) pfDHFR (Plasmodium falciparum, UniProt P13922, I164L/N51I); test: Inhibition of quadruple mutant pfDHFR (Ki); format: biochemical
Chain of quadruple mutant N51I + C59R + S108N + I164L (QM) pfDHFR (P13922 whole entry N51I/I164L): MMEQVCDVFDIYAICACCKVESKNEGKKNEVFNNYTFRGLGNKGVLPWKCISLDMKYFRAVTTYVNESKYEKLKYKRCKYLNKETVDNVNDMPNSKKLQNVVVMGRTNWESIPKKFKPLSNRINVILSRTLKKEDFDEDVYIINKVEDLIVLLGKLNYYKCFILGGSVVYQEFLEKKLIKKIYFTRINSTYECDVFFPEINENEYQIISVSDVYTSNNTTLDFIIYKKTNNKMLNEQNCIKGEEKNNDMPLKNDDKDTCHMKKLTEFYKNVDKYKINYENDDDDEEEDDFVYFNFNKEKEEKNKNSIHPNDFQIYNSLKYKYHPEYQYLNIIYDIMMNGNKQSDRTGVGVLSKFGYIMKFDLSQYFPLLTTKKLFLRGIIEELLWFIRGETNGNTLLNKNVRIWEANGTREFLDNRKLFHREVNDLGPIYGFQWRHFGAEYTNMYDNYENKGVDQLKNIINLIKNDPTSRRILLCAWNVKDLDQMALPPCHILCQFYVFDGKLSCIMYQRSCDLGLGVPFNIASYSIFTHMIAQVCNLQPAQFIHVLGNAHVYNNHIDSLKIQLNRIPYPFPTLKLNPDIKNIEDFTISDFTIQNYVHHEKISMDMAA
Protocol: as §2

[7] = test system: Vero cells; test: in vitro; details: read-out: Cytotoxicity against Vero cells (IC50); Vero cells
Text: as §1

[8] = Plasmodium falciparum, in vitro, wild-type strain TM4/8.2

In the case of `CCc1nc(N)nc(N)c1OCCCc1cc(-c2cccc(C(=O)O)c2)no1.Cl` [Compound 49, 2,4-diamino-6-ethyl-5-(3-(3-(3-(carboxy)phenyl)isoxazol-5-yl)propoxy)pyrimidine Hydrochloride], the IC50 [1] is reported as > 100000 nM, the Ki [2] is reported as 12.6 ± 1.43 nM and the Ki [3] is reported as 0.19 ± 0.02 nM. The melting point was 219 to 220.5 °C, the IC50 [4, 8] was 7 ± 1.5 nM and the IC50 ([5]; Plasmodium falciparum) was 130 ± 40 nM. It also gave a Ki [6] of 0.29 ± 0.01 nM.
For `CCc1nc(N)nc(N)c1OCCCOc1ccccc1CCC(=O)O` [Compound P218, reference compound], the IC50 [7] was > 10000 nM, the Ki [2] was 17.4 ± 3.8 nM and the IC50 [4] was 4.6 ± 1.9 nM. It also gave an IC50 [5] of 56 ± 20 nM.
For `CCc1nc(N)nc(N)c1-c1cn(-c2cccc(C(=O)O)c2)nn1.Cl` [Compound 2, 2,4-diamino-6-ethyl-5-(1-(3-(carboxy)phenyl)-1H-1,2,3-triazol-4-yl)pyrimidine Hydrochloride], the IC50 [1] was > 10000 nM, the Ki [2] was > 100000 nM and the Ki [3] was 1030 ± 89.3 nM. The melting point was 205 to 207 °C, the IC50 [4, 8] was > 10000 nM and the IC50 ([5]; Plasmodium falciparum) was > 10000 nM. The Ki [6] was 6650 ± 409 nM.
With `CCc1nc(N)nc(N)c1OCc1cn(-c2cccc(C(=O)O)c2)nn1.Cl` [Compound 16, 2,4-diamino-6-ethyl-5-((1-(3-(carboxy)phenyl)-1H-1,2,3-triazol-4-yl)methoxy)pyrimidine Hydrochloride] the IC50 [1] was > 25000 nM, the Ki [2] was 817 ± 145 nM and the Ki [3] was 0.27 ± 0.03 nM. For the same compound, the melting point was 197.5 to 199.5 °C, the IC50 [4, 8] was 600 ± 240 nM and the IC50 ([5]; Plasmodium falciparum) was > 25000 nM. It also gave a Ki [6] of 6.18 ± 0.6 nM.
For `CCc1nc(N)nc(N)c1OCc1csc(-c2cccc(C(=O)O)c2)n1.Cl` [Compound 66, 2,4-diamino-6-ethyl-5-((2-(3-(carboxy)phenyl)thiazol-4-yl)methoxy)pyrimidine Hydrochloride], the IC50 [1] was > 10000 nM, the Ki [2] was 102 ± 5.26 nM and the Ki [3] was 0.86 ± 0.1 nM. The melting point was 217.5 to 219 °C, the IC50 [4, 8] was 2170 ± 540 nM and the IC50 ([5]; Plasmodium falciparum) was > 10000 nM. For the same compound, the Ki [6] was 36.7 ± 4.79 nM.
